Here are results for 9 compounds from patent US10683297B2 (Sunshine Lake Pharma Co., Ltd., priority 2017, dated 2020).

Data set [1] can be described thus: Compound stability in human liver microsomes. Format: in vitro ADME. As to conditions: for half-life at 5 μM: human liver microsomes 0.5 mg protein/mL, compound 5 μM, NADPH 1.0 mM, pH 7.4, 37° C., read-out: Human T1/2; for CLint scaled at 5 μM: liver microsomes, pH 7.4, in vivo CLint extrapolated from human liver microsome incubation. In a few lines: (§1)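 Compounds (5 μM) incubated at 37 °C with human or rat liver microsomes (0.5 mg protein/mL) and 1.0 mM NADPH in 100 mM phosphate buffer pH 7.4, 0.05% DMSO, in duplicate. Sampled 0–60 min, quantified by LC/MS/MS as % of time zero; CLint extrapolated.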

Data set [2] can be described thus: Compound stability in rat liver microsomes. In kind it is in vitro ADME. The note with it: for CLint scaled at 5 μM: liver microsomes, pH 7.4, in vivo CLint extrapolated from rat liver microsome incubation; for half-life at 5 μM: rat liver microsomes 0.5 mg protein/mL, compound 5 μM, NADPH 1.0 mM, pH 7.4, 37° C., read-out: Rat T1/2. A digest of the protocol: as §1

A further data set addresses T1, JAK2 (h) (Homo sapiens, UniProt O60674).
T1 construct: purchased Millipore UK Ltd (assays performed there as a service)
Put plainly: JAK2 (h) kinase assay. Format: biochemical. The note with it: [γ-33P-ATP] 10 μM or KM values; 40 minutes at room temperature. In a few lines: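 Radiometric filter-binding assay run at Millipore: human JAK2 with 100 μM peptide substrate in 8 mM MOPS pH 7.0, 0.2 mM EDTA, 10 mM MgAcetate, [γ-^33P]ATP at 10 μM or KM, 40 min at room temperature. Acid-stopped, spotted on P30 filtermat, scintillation counted; IC50 from 10-point ½-log curve.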

Molecules are shown by their SMILES.

T1 sequence (O60674 whole entry): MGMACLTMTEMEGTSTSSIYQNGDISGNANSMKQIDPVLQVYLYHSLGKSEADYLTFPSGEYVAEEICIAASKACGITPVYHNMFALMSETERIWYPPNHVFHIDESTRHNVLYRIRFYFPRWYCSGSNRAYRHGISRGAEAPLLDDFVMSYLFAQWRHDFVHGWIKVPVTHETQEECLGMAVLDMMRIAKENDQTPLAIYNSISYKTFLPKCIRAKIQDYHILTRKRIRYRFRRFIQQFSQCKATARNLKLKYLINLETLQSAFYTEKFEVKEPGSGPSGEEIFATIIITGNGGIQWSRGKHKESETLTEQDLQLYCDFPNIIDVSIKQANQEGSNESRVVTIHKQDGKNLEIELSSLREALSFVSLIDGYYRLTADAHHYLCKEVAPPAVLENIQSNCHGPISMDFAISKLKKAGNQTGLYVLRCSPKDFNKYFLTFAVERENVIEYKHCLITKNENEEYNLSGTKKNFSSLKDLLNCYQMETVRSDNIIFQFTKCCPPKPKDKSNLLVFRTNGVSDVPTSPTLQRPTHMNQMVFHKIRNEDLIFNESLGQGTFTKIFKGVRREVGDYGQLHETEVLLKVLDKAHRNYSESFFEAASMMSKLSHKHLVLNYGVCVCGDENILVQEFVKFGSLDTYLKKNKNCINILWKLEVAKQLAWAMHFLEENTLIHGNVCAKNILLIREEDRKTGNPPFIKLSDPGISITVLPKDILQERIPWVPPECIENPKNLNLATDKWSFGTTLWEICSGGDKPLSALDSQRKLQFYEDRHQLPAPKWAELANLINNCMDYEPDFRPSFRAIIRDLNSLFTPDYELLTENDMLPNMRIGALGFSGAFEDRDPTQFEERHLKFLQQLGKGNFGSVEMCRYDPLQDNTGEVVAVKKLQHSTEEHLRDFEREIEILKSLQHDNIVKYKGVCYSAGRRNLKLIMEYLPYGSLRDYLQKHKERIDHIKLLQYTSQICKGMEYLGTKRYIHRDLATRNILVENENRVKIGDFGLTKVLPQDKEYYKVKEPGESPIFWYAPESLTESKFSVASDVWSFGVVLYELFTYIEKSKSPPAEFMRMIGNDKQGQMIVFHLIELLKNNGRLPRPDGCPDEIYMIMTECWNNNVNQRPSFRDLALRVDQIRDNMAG

Take `CC(C)(O)c1cnc2cc(Nc3ncc(Cl)c(NC4CCN(c5ccc(C#N)cn5)CC4)n3)ccn12` [Example 68, 6-(4-((5-chloro-2-((3-(2-hydroxypropan-2-yl)imidazo[1,2-a]pyridin-7-yl)amino)pyrimidin-4-yl)amino)piperidin-1-yl)nicotinonitrile]: in data set [1], the half-life at 5 μM was determined as 10.6 min and the CLint scaled at 5 μM was 164 mL/min/kg. Moreover, in data set [2], the CLint scaled at 5 μM is 130 mL/min/kg and the half-life at 5 μM came out at 19 min. The compound further displayed an IC50 against JAK2 (h) of 3 nM.

In the case of `CC(C)(O)Cn1nnc2cc(Nc3ncc(Cl)c(NC4CCN(c5ccc(C#N)cn5)CC4)n3)ccc21` [Example 69, 6-(4-((5-chloro-2-((1-(2-hydroxy-2-methylpropyl)-1H-benzo[d][1,2,3]triazol-5-yl)amino)pyrimidin-4-yl)amino)piperidin-1-yl)nicotinonitrile], the half-life at 5 μM in data set [1] was determined as 496 min; in data set [2], 170 min. The values for the intrinsic clearance (CLint scaled) at 5 μM in data set [1] and in data set [2] were 3.5 mL/min/kg and 14.6 mL/min/kg, respectively. In addition, the IC50 against JAK2 (h) came out at 2 nM.

Turning to `CC(C)(O)c1cn2ccc(Nc3ncc(Cl)c(NC4CCN(c5ccc(C#N)cn5)CC4)n3)cc2n1` [Example 70, 6-(4-((5-chloro-2-((2-(2-hydroxypropan-2-yl)imidazo[1,2-a]pyridin-7-yl)amino)pyrimidin-4-yl)amino)piperidin-1-yl)nicotinonitrile], in data set [1], the half-life at 5 μM turned out to be 10.3 min and the CLint scaled at 5 μM was 168 mL/min/kg. In addition, in data set [2], the CLint scaled at 5 μM was 528 mL/min/kg and the half-life at 5 μM amounted to 4.71 min. The IC50 against JAK2 (h) amounted to 8 nM.

For `CC(C)(O)Cc1cn2cc(Nc3ncc(Cl)c(NC4CCN(c5ccc(C#N)cn5)CC4)n3)ccc2n1` [Example 73, 6-(4-((5-chloro-2-((2-(2-hydroxy-2-methylpropyl)imidazo[1,2-a]pyridin-6-yl)amino)pyrimidin-4-yl)amino)piperidin-1-yl)nicotinonitrile], the figures for the half-life at 5 μM in data set [1] and in data set [2] were 42 min and 11.6 min, respectively. For the same compound, the values for the CLint scaled at 5 μM in data set [1] and in data set [2] were 41.3 mL/min/kg and 214 mL/min/kg, respectively. The same compound registered an IC50 against JAK2 (h) of 5 nM.

For `CC(C)(O)Cc1nnc2cc(Nc3ncc(Cl)c(NC4CCN(c5ccc(C#N)cn5)CC4)n3)ccn12` [Example 74, 6-(4-((5-chloro-2-((3-(2-hydroxy-2-methylpropyl)-[1,2,4]triazolo[4,3-a]pyridin-7-yl)amino)pyrimidin-4-yl)amino)piperidin-1-yl)nicotinonitrile], the half-life at 5 μM in data set [1] and in data set [2] was more than 60 min each time. In addition, the IC50 against JAK2 (h) was determined as 4 nM.

Take `CC(C)(O)Cc1nnc2cc(Nc3ncc(Cl)c(NC4CCN(c5ccc(C#N)nn5)CC4)n3)ccn12` [Example 75, 6-(4-((5-chloro-2-((3-(2-hydroxy-2-methylpropyl)-[1,2,4]triazolo[4,3-a]pyridin-7-yl)amino)pyrimidin-4-yl)amino)piperidin-1-yl)pyridazine-3-carbonitrile]: the half-life at 5 μM in data set [1] and in data set [2] was more than 60 min throughout. 8 nM corresponded to half-maximal inhibition against JAK2 (h) (IC50).

Regarding `CC(C)(O)Cc1nc2cc(Nc3ncc(Cl)c(NC4CCN(c5ccc(C#N)nn5)CC4)n3)ccn2n1` [Example 77, 6-(4-((5-chloro-2-((2-(2-hydroxy-2-methylpropyl)-[1,2,4]triazolo[1,5-a]pyridin-7-yl)amino)pyrimidin-4-yl)amino)piperidin-1-yl)pyridazine-3-carbonitrile], in data set [1], the half-life at 5 μM is 257 min and the CLint scaled at 5 μM is 6.8 mL/min/kg. Also, in data set [2], the CLint scaled at 5 μM is 38.2 mL/min/kg and the half-life at 5 μM was 65 min. The compound further had an IC50 at JAK2 (h) of 17 nM.

With `CC(C)(O)Cc1nc2cc(Nc3ncc(Cl)c(NC4CCN(c5ccc(C#N)cn5)CC4)n3)ccn2n1` [Example 78, 6-(4-((5-chloro-2-((2-(2-hydroxy-2-methylpropyl)-[1,2,4]triazolo[1,5-a]pyridin-7-yl)amino)pyrimidin-4-yl)amino)piperidin-1-yl)nicotinonitrile], in data set [1], the half-life at 5 μM was 35.3 min and the intrinsic metabolic clearance (CLint scaled) at 5 μM was 49.3 mL/min/kg. For the same compound, in data set [2], the CLint scaled at 5 μM is 157 mL/min/kg and the half-life at 5 μM was 15.8 min. The compound further registered an IC50 against JAK2 (h) of 10 nM.

Regarding `CC(C)(O)Cc1nc2ccc(Nc3ncc(Cl)c(NC4CCN(c5ccc(C#N)nn5)CC4)n3)cn2n1` [Example 79, 6-(4-((5-chloro-2-((2-(2-hydroxy-2-methylpropyl)-[1,2,4]triazolo[1,5-a]pyridin-6-yl)amino)pyrimidin-4-yl)amino)piperidin-1-yl)pyridazine-3-carbonitrile], in data set [1], the half-life at 5 μM came out at 196 min and the intrinsic metabolic clearance (CLint scaled) at 5 μM is 8.9 mL/min/kg. In data set [2], the intrinsic metabolic clearance (CLint scaled) at 5 μM was 5.1 mL/min/kg and the half-life at 5 μM was 486 min. It took 102 nM to reach half-maximal inhibition at JAK2 (h) (IC50).
